{"source": "patent US20250026725A1", "about": "“HYDRATE CRYSTAL OF 5-CHLORO-4-(3-CHLORO-4- METHYLPHENYL)-1H-IMIDAZOLE-2-CARBONITRILE” (ISHIHARA SANGYO KAISHA, LTD., priority 2021, published 2025)", "key": {"[1]": {"test": "Karl Fischer moisture content measurement (volumetric titration method)", "assay_type": "physicochemical", "conditions": "atmosphere of 25° C., as obtained", "method": "The moisture content rates of the hydrate crystals obtained in Production Examples 1 and 2, and the anhydrous crystals used as a raw material in Production Example 1 were measured with a Karl Fischer moisture meter (CA-310, manufactured by Nittoseiko Analytech Co., Ltd.). The test was conducted in conformance with the description in The Japanese Pharmacopoeia, 18th Edition, “2.48 Water Determination (Karl Fischer Method)”, Volumetric titration. The measurement was performed in an atmosphere of 25° C., with the conditions set to a forced delay time of 2 minutes after sample administration, a minimum amount to be titrated of 2 μL, and an end point voltage of 140 mV. More specifically, it was as follows. First, into a measuring flask, methanol for moisture measurement (Aquamicron Dehydrated Solvent GEX, manufactured by Mitsubishi Chemical Corporation) was loaded, and 30 mg of water was added thereto to titrate the mixture with a Karl Fischer reagent (Aquamicron SS-Z, manufactured by Mitsubishi Chemical Corporation). After titration, a titer (mg/mL) of the reagent was determined from the amount titrated. Next, about 0.1 g of a measurement sample was precisely weighed and added into the measuring flask to titrate the mixture with a Karl Fischer reagent. The moisture content (w/w %) in the sample was calculated from the amount titrated and the previously determined titer."}, "[2]": {"test": "Moisture absorption test", "assay_type": "physicochemical", "conditions": "60° C./80% RH, paper bag", "method": "An anhydrous crystal sample was placed in a container (glass weighing bottle or paper bag) in such a manner that it was in direct contact with the damp. […] In addition, a sample for the hydrate crystal (Production Example 1) was also preserved at 60° C./80% RH, and the change in moisture content was observed through the change in weight or Karl Fischer moisture measurement."}, "[3]": {"test": "Drying test", "assay_type": "physicochemical", "conditions": "25° C., dried (silica gel), weighing bottle", "method": "The hydrate crystal of Production Example 1 was stored at 25° C. under a dried condition (in the presence of silica gel) for a period shown in Table 2. The Karl Fischer moisture content after storage was measured, and the change in moisture content was observed."}, "[4]": {"test": "Test of triboelectrification properties", "assay_type": "physicochemical", "conditions": "for Decrease of potential retention rate: at 20 minutes later", "method": "First, the sample was loaded into a levelled stainless steel petri dish having φ50 mm×a height of 15 mm, and then it was statically eliminated with a static eliminator (STABLO AP, manufactured by SHIMADZU CORPORATION). The surface potential of the sample was measured with a surface electrometer (SV-77A, manufactured by NIPPON STATIC CO., LTD.) that had previously been zero-point adjusted, to confirm that it was statically eliminated (within −1 to +1 kV). Next, the sample surface of the petri dish loaded with the sample was scraped back and forth 20 times with a stainless steel metal plate for 10 seconds to charge the sample surface. After that, the petri dish loaded with the charged sample was placed on a metal plate (30 cm×30 cm) connected with a ground wire. The surface potential of the sample was measured over time for 20 minutes with the above surface electrometer. The triboelectrification properties were evaluated from the initial surface potential. In addition, the retention rate was calculated from the surface potential after 20 minutes and the initial surface potential to evaluate charge attenuation properties. Note that the test was conducted in an electrostatic measurement chamber (Tabai ESPEC CORP.) set to 25° C. and 50% RH, and the surface potential measurement was conducted at a distance of 1 cm from the sample surface."}, "[5]": {"system": "Trichophyton rubrum (ATCCMYA4607)", "test": "Antifungal activity test, minimum inhibitory concentration (MIC100)", "assay_type": "cell-based", "conditions": "Table 21, same method as Test Example 12, read-out: Minimal fungicidal concentration (MFC100)", "method": "Trichophyton rubrum was cultured on a Sabouraud medium at 32° C. for 168 hours to form spores. Mycelia were peeled from a medium surface and collected into a tube, physiological saline solution (OTSUKA NORMAL SALINE; containing the equivalent of 9 g of sodium chloride in 1000 mL) was added thereto, and the entire mixture was mixed and dispersed with a disposable loop (Type 1 (1 μL)) to collect a spore suspension containing mycelia. The spore suspension containing mycelia was filtered through a cell strainer (+40 μm). Spores were collected from a filtrate by centrifugation (3500 rpm, 5 minutes), and washed twice with physiological saline to prepare a spore suspension (1×10^6 cells/mL). 10 μL of the spore suspension was inoculated into the Sabouraud medium to which the test compound dissolved in DMSO was added so as to have a predetermined concentration. Trichophyton rubrum was cultured at 32° C. for 72 hours, and then the presence or absence of the development of colonies was examined to determine a minimum inhibitory concentration (MIC100).\nA minimum inhibitory concentration (MIC100) for Trichophyton rubrum (ATCCMYA4607) was determined in the same method as in Test Example 12 except that the hydrate crystal (Production Example 2) was used as the compound under test."}}}
{"smiles": "Cc1ccc(-c2nc(C#N)[nH]c2Cl)cc1Cl", "note": "[Hydrate crystal (Production Example 1), 5-chloro-4-(3-chloro-4-methylphenyl)-1H-imidazole-2-carbonitrile]", "values": [{"measurement": "Karl Fischer moisture content", "setting": "[1]; listed as hydrate crystal of Production Example 1", "value": 6.6, "unit": "wt %"}, {"measurement": "Moisture content", "setting": "[2]; 0 days", "value": 0.1, "unit": "%"}, {"measurement": "Weight change", "setting": "[2]; 4 days", "value": 6.4, "unit": "%"}, {"measurement": "Weight change", "setting": "[2]; 7 days", "value": 6.4, "unit": "%"}, {"measurement": "Weight change", "setting": "[2]; 14 days", "value": 6.5, "unit": "%"}, {"measurement": "Moisture content", "setting": "[2]; 20 days", "value": 6.7, "unit": "%"}, {"measurement": "Weight change", "setting": "[2]; 20 days", "value": 6.5, "unit": "%"}, {"measurement": "Weight change", "setting": "[2]; 29 days", "value": 6.5, "unit": "%"}, {"measurement": "Weight change", "setting": "[2]; 40 days", "value": 6.5, "unit": "%"}, {"measurement": "Moisture content", "setting": "[2]; 61 days", "value": 6.6, "unit": "%"}, {"measurement": "Weight change", "setting": "[2]; 61 days", "value": 6.5, "unit": "%"}, {"measurement": "Karl Fischer moisture content", "setting": "[3]; 0 days", "value": 6.5, "unit": "%"}, {"measurement": "Karl Fischer moisture content", "setting": "[3]; 14 days", "value": 6.7, "unit": "%"}, {"measurement": "Karl Fischer moisture content", "setting": "[3]; 29 days", "value": 6.7, "unit": "%"}, {"measurement": "Karl Fischer moisture content", "setting": "[3]; 38 days", "value": 6.7, "unit": "%"}, {"measurement": "Karl Fischer moisture content", "setting": "[3]; 53 days", "value": 6.7, "unit": "%"}, {"measurement": "Electrification voltage", "setting": "[4]; 0 minutes after charging, 25° C. and 50% RH", "value": "−3.00", "unit": "kv"}, {"measurement": "Electrification voltage", "setting": "[4]; 20 minutes after charging, 25° C. and 50% RH", "value": "−2.79", "unit": "kv"}, {"measurement": "Decrease of potential retention rate", "setting": "[4]; 25° C. and 50% RH, listed as hydrate crystal of Production Example 1", "value": 7, "unit": "%"}, {"measurement": "Retention rate", "setting": "[4]; surface potential after 20 minutes vs initial, 25° C. and 50% RH", "value": 93.0, "unit": "%"}]}
{"smiles": "Cc1ccc(-c2nc(C#N)[nH]c2Cl)cc1Cl", "note": "[Hydrate crystal (Production Example 2), 5-chloro-4-(3-chloro-4-methylphenyl)-1H-imidazole-2-carbonitrile]", "values": [{"measurement": "MFC", "setting": "[5]", "value": 5, "unit": "µg/mL"}, {"measurement": "Karl Fischer moisture content", "setting": "[1]; listed as hydrate crystal of Production Example 2", "value": 6.7, "unit": "wt %"}, {"measurement": "Electrification voltage", "setting": "[4]; 0 minutes after charging; 25° C. and 50% RH; listed as Hydrate crystal Production Example 2)", "value": "−2.30", "unit": "kv"}, {"measurement": "Electrification voltage", "setting": "[4]; 20 minutes after charging; 25° C. and 50% RH; listed as Hydrate crystal Production Example 2)", "value": "−1.98", "unit": "kv"}, {"measurement": "Decrease of potential retention rate", "setting": "[4]; 25° C. and 50% RH, listed as hydrate crystal of Production Example 2", "value": 14, "unit": "%"}, {"measurement": "Retention rate", "setting": "[4]; surface potential after 20 minutes vs initial; 25° C. and 50% RH; listed as Hydrate crystal Production Example 2)", "value": 86.1, "unit": "%"}]}
